For 1 compound, Ki results are on record in US6239129A, “Cyano-indole serotonin-reuptake inhibitor compounds” (Adir et Compagnie, priority 1999, dated 2001).

The target in this test is T1, Serotonin-reuptake Sites (Rattus norvegicus, UniProt P31652).
T1 construct: The membranes are prepared from rat frontal cortex; from tissue; host or cells: rat frontal cortex membranes
Briefly: Determination of Affinity for Serotonin-reuptake Sites in the Rat ([^3 H]-paroxetine competition). It counts as binding. As to conditions: read-out: dissociation constant Ki. The procedure:
Determination of Affinity for Serotonin-reuptake Sites in the Rat
The incubation buffer contains 50 mM TRIS-HCl (pH 7.4), 120 mM NaCl and 5 mM KCl. Non-specific binding is determined using 10 μM citalopram. At the end of the incubation, the mixture is filtered through filters and washed three times with 5 ml of cooled buffer. The radioactivity retained on the filters is determined by liquid scintillation counting. The binding isotherms are analysed by non-linear regression to determine the IC50 values. The latter are converted into a dissociation constant (Ki) using the Cheng-Prusoff equation: […]

Where a name gives a salt, the structure may show the parent alone.

T1 sequence (P31652 whole entry): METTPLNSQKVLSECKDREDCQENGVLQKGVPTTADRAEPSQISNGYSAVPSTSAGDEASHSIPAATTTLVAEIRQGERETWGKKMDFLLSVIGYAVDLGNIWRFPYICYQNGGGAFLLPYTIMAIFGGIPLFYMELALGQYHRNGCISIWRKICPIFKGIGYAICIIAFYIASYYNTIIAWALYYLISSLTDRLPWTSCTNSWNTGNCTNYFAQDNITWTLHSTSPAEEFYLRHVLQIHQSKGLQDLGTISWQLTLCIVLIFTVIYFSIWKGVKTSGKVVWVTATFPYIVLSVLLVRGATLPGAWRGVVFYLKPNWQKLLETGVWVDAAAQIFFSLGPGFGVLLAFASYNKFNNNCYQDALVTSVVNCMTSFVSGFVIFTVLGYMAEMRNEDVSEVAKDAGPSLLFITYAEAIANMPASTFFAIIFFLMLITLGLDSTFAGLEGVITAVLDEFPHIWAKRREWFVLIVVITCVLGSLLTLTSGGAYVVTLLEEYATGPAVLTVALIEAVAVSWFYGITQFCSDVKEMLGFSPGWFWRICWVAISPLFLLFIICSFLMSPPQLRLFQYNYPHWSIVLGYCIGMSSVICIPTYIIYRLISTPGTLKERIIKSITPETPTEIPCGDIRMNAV

For `COc1cncnc1N1CCN(CCCn2ccc3ccc(C#N)cc32)CC1` [Example 1, 1-{3-[4-(5-Methoxy-4-pyrimidinyl)-1-piperazinyl]propyl}-1H-indole-6-carbonitrile dihydrochloride], the Ki was 9.8 nM.

As a reminder, the Ki is a dissociation constant, usually derived from enzyme kinetics or from competition with a known ligand.
